Experimental data published in ChEMBL document CHEMBL3045770, “Design and synthesis of some thieno[2,3-c]pyridazine derivatives of expected anticancer activity” (2013).

What was measured:
Type in all cases: functional
OVCAR-8 = assay: Cytotoxicity against Homo sapiens (human) OVCAR8 cells after 48 hr by SRB assay; details: OVCAR-8, 48 h
OVCAR-3 = assay: Cytotoxicity against Homo sapiens (human) OVCAR3 cells after 48 hr by SRB assay; details: OVCAR-3, 48 h
IGROV-1 = assay: Cytotoxicity against Homo sapiens (human) IGROV1 cells after 48 hr by SRB assay; details: IGROV-1, 48 h
SK-MEL-5 = assay: Cytotoxicity against Homo sapiens (human) SK-MEL-5 cells after 48 hr by SRB assay; details: SK-MEL-5, 48 h
MDA-MB-435 = assay: Cytotoxicity against Homo sapiens (human) MDA-MB-435 cells after 48 hr by SRB assay; details: MDA-MB-435, 48 h
M14 = assay: Cytotoxicity against Homo sapiens (human) M14 cells after 48 hr by SRB assay; details: M14, 48 h
Malme-3M = assay: Cytotoxicity against Homo sapiens (human) MALME-3M cells after 48 hr by SRB assay
SNB-75 = assay: Cytotoxicity against Homo sapiens (human) SNB75 cells after 48 hr by SRB assay; details: SNB-75, 48 h
SNB-19 = assay: Cytotoxicity against Homo sapiens (human) SNB19 cells after 48 hr by SRB assay; details: SNB-19, 48 h
SF-539 = assay: Cytotoxicity against Homo sapiens (human) SF539 cells after 48 hr by SRB assay; details: SF-539, 48 h
SF-295 = assay: Cytotoxicity against Homo sapiens (human) SF295 cells after 48 hr by SRB assay; details: SF-295, 48 h
SF-268 = assay: Cytotoxicity against Homo sapiens (human) SF268 cells after 48 hr by SRB assay; details: SF-268, 48 h
KM12 = assay: Cytotoxicity against Homo sapiens (human) KM12 cells after 48 hr by SRB assay; details: KM12, 48 h
HCC 2998 = assay: Cytotoxicity against Homo sapiens (human) HCC2998 cells after 48 hr by SRB assay; details: HCC 2998, 48 h
HCT-116 = assay: Cytotoxicity against Homo sapiens (human) HCT116 cells after 48 hr by SRB assay; details: HCT-116, 48 h
NCI-H522 = assay: Cytotoxicity against Homo sapiens (human) NCI-H522 cells after 48 hr by SRB assay; details: NCI-H522, 48 h
MDA-MB-468 = assay: Cytotoxicity against Homo sapiens (human) MDA-MB-468 cells after 48 hr by SRB assay; details: MDA-MB-468, 48 h
Hs-578T = assay: Cytotoxicity against Homo sapiens (human) Hs 578T cells after 48 hr by SRB assay
MDA-MB-231 = assay: Cytotoxicity against Homo sapiens (human) MDA-MB-231 cells after 48 hr by SRB assay; details: MDA-MB-231, 48 h
MCF7 = assay: Cytotoxicity against Homo sapiens (human) MCF7 cells after 48 hr by SRB assay; details: MCF7, 48 h
UO-31 = assay: Cytotoxicity against Homo sapiens (human) UO31 cells after 48 hr by SRB assay; details: UO-31, 48 h
TK-10 = assay: Cytotoxicity against Homo sapiens (human) TK10 cells after 48 hr by SRB assay; details: TK-10, 48 h
RXF 393 = assay: Cytotoxicity against Homo sapiens (human) RXF393 cells after 48 hr by SRB assay; details: RXF 393, 48 h
CAKI-1 = assay: Cytotoxicity against Homo sapiens (human) Caki1 cells after 48 hr by SRB assay; details: CAKI-1, 48 h
ACHN = assay: Cytotoxicity against Homo sapiens (human) ACHN cells after 48 hr by SRB assay
786-0 = assay: Cytotoxicity against Homo sapiens (human) 786-0 cells after 48 hr by SRB assay; details: 786-0, 48 h
SK-OV-3 = assay: Cytotoxicity against Homo sapiens (human) SKOV3 cells after 48 hr by SRB assay; details: SK-OV-3, 48 h
[1] = Cytotoxicity against Homo sapiens (human) NCI-ADR-RES cells after 48 hr by SRB assay
NCI-H322M = assay: Cytotoxicity against Homo sapiens (human) NCI-H322M cells after 48 hr by SRB assay
HOP-62 = assay: Cytotoxicity against Homo sapiens (human) HOP62 cells after 48 hr by SRB assay; details: HOP-62, 48 h
HOP-92 = assay: Cytotoxicity against Homo sapiens (human) HOP92 cells after 48 hr by SRB assay; details: HOP-92, 48 h
EKVX = assay: Cytotoxicity against Homo sapiens (human) EKVX cells after 48 hr by SRB assay
RPMI-8226 = assay: Cytotoxicity against Homo sapiens (human) RPMI8226 cells after 48 hr by SRB assay; details: RPMI-8226, 48 h
SR = assay: Cytotoxicity against Homo sapiens (human) SR cells after 48 hr by SRB assay
CCRF-CEM = assay: Cytotoxicity against Homo sapiens (human) CCRF-CEM cells after 48 hr by SRB assay
[2] = read-out: LC50 (the source's name)

Q: For `Oc1c(-c2nnc(-c3ccc(Cl)cc3)o2)sc2nnc(-c3ccccc3)c(-c3ccccc3)c12`, which GI50 (OVCAR-8) is on record?
A: Its GI50 is 4.38 µM.

Q: What about the TGI (OVCAR-8) of the same compound?
A: The TGI was 18.3 µM.

Q: And the CC50 (OVCAR-8; [2])?
A: Its CC50 is 0.0183 µM.

Q: What about the GI50 (OVCAR-3) of the same compound?
A: Its GI50 is 3.77 µM.

Q: And the TGI (OVCAR-3)?
A: The TGI was 6.1 µM.

Q: What about the GI50 (IGROV-1) of the same compound?
A: Its GI50 is 3.66 µM.

Q: What about the TGI (IGROV-1) of the same compound?
A: The TGI was 6.35 µM.

Q: What about the CC50 (IGROV-1; [2]) of the same compound?
A: Its CC50 is 0.0183 µM.

Q: And the GI50 (SK-MEL-5)?
A: The GI50 was 5.41 µM.

Q: What about the TGI (SK-MEL-5) of the same compound?
A: Its TGI is 9.1 µM.

Q: And the CC50 (SK-MEL-5; [2])?
A: The CC50 was 0.0136 µM.

Q: And the GI50 (MDA-MB-435)?
A: The GI50 was 4.65 µM.

Q: What about the TGI (MDA-MB-435) of the same compound?
A: The TGI was 18.3 µM.

Q: What about the GI50 (M14) of the same compound?
A: Its GI50 is 4.99 µM.

Q: And the TGI (M14)?
A: Its TGI is 12.2 µM.

Q: And the GI50 (Malme-3M)?
A: Its GI50 is 4.61 µM.

Q: And the TGI (Malme-3M)?
A: Its TGI is 11.3 µM.

Q: And the GI50 (SNB-75)?
A: Its GI50 is 5.74 µM.

Q: What about the TGI (SNB-75) of the same compound?
A: The TGI was 18.3 µM.

Q: What about the GI50 (SNB-19) of the same compound?
A: The GI50 was 4.7 µM.

Q: And the TGI (SNB-19)?
A: Its TGI is 18.3 µM.

Q: What about the GI50 (SF-539) of the same compound?
A: The GI50 was 4.75 µM.

Q: What about the TGI (SF-539) of the same compound?
A: Its TGI is 15.8 µM.

Q: What about the CC50 (SF-539; [2]) of the same compound?
A: Its CC50 is 0.0183 µM.

Q: And the GI50 (SF-295)?
A: Its GI50 is 3.28 µM.

Q: What about the TGI (SF-295) of the same compound?
A: Its TGI is 8.15 µM.

Q: What about the GI50 (SF-268) of the same compound?
A: The GI50 was 5.52 µM.

Q: What about the TGI (SF-268) of the same compound?
A: The TGI was 18.3 µM.

Q: And the GI50 (KM12)?
A: Its GI50 is 4.7 µM.

Q: And the TGI (KM12)?
A: Its TGI is 15 µM.

Q: What about the CC50 (KM12; [2]) of the same compound?
A: The CC50 was 0.0183 µM.

Q: What about the GI50 (HCC 2998) of the same compound?
A: The GI50 was 4.99 µM.

Q: What about the TGI (HCC 2998) of the same compound?
A: The TGI was 18.3 µM.

Q: What about the GI50 (HCT-116) of the same compound?
A: The GI50 was 3.97 µM.

Q: And the TGI (HCT-116)?
A: The TGI was 7.16 µM.

Q: And the GI50 (NCI-H522)?
A: Its GI50 is 4.34 µM.

Q: What about the TGI (NCI-H522) of the same compound?
A: Its TGI is 9.76 µM.

Q: What about the GI50 (MDA-MB-468) of the same compound?
A: The GI50 was 5.04 µM.

Q: What about the TGI (MDA-MB-468) of the same compound?
A: The TGI was 10.5 µM.

Q: And the GI50 (Hs-578T)?
A: The GI50 was 4.43 µM.

Q: What about the TGI (Hs-578T) of the same compound?
A: Its TGI is 18.3 µM.

Q: What about the GI50 (MDA-MB-231) of the same compound?
A: The GI50 was 4.56 µM.

Q: What about the TGI (MDA-MB-231) of the same compound?
A: Its TGI is 12.3 µM.

Q: And the CC50 (MDA-MB-231; [2])?
A: The CC50 was 0.0183 µM.

Q: What about the GI50 (MCF7) of the same compound?
A: The GI50 was 4.43 µM.

Q: And the TGI (MCF7)?
A: The TGI was 18.3 µM.

Q: What about the CC50 (MCF7; [2]) of the same compound?
A: Its CC50 is 0.0183 µM.

Q: What about the GI50 (UO-31) of the same compound?
A: Its GI50 is 3.62 µM.

Q: What about the TGI (UO-31) of the same compound?
A: The TGI was 6.22 µM.

Q: And the GI50 (TK-10)?
A: Its GI50 is 5.14 µM.

Q: And the TGI (TK-10)?
A: The TGI was 16.9 µM.

Q: And the CC50 (TK-10; [2])?
A: The CC50 was 0.0183 µM.

Q: And the GI50 (RXF 393)?
A: Its GI50 is 3.66 µM.

Q: What about the TGI (RXF 393) of the same compound?
A: The TGI was 18.3 µM.

Q: And the GI50 (CAKI-1)?
A: The GI50 was 1.84 µM.

Q: And the TGI (CAKI-1)?
A: Its TGI is 9.95 µM.

Q: And the GI50 (ACHN)?
A: Its GI50 is 4.25 µM.

Q: And the TGI (ACHN)?
A: Its TGI is 17.4 µM.

Q: What about the CC50 (ACHN; [2]) of the same compound?
A: The CC50 was 0.0183 µM.

Q: What about the GI50 (786-0) of the same compound?
A: The GI50 was 5.86 µM.

Q: What about the TGI (786-0) of the same compound?
A: Its TGI is 18.3 µM.

Q: What about the GI50 (SK-OV-3) of the same compound?
A: Its GI50 is 5.04 µM.

Q: And the TGI (SK-OV-3)?
A: Its TGI is 18.3 µM.

Q: And the CC50 (SK-OV-3; [2])?
A: Its CC50 is 0.0183 µM.

Q: What about the GI50 [1] of the same compound?
A: The GI50 was 2.58 µM.

Q: And the TGI [1]?
A: The TGI was 18.3 µM.

Q: And the GI50 (NCI-H322M)?
A: Its GI50 is 4.17 µM.

Q: And the TGI (NCI-H322M)?
A: The TGI was 10.6 µM.

Q: And the CC50 (NCI-H322M; [2])?
A: The CC50 was 0.0183 µM.

Q: What about the GI50 (HOP-62) of the same compound?
A: Its GI50 is 4.99 µM.

Q: And the TGI (HOP-62)?
A: Its TGI is 18.3 µM.

Q: What about the GI50 (HOP-92) of the same compound?
A: Its GI50 is 3.21 µM.

Q: And the TGI (HOP-92)?
A: Its TGI is 6.74 µM.

Q: And the CC50 (HOP-92; [2])?
A: The CC50 was 0.0183 µM.

Q: What about the GI50 (EKVX) of the same compound?
A: Its GI50 is 4.05 µM.

Q: What about the TGI (EKVX) of the same compound?
A: Its TGI is 11.2 µM.

Q: What about the CC50 (EKVX; [2]) of the same compound?
A: Its CC50 is 0.0183 µM.

Q: What about the GI50 (RPMI-8226) of the same compound?
A: The GI50 was 3.97 µM.

Q: And the TGI (RPMI-8226)?
A: The TGI was 18.3 µM.

Q: And the CC50 (RPMI-8226; [2])?
A: The CC50 was 0.0183 µM.

Q: And the GI50 (SR)?
A: Its GI50 is 4.52 µM.

Q: And the TGI (SR)?
A: The TGI was 18.3 µM.

Q: What about the GI50 (CCRF-CEM) of the same compound?
A: Its GI50 is 2.88 µM.

Q: And the TGI (CCRF-CEM)?
A: Its TGI is 18.3 µM.
